Test results: BindingDB's records for doi:10.1016/j.bmc.2010.03.023 (Swedish University Agricultural Sciences, 2010)

Tests used:
Thymidine kinase = biological target: T1, Thymidine kinase (Ureaplasma parvum serovar 3 (strain ATCC 700970), UniProt Q9PPP5); assay: Inhibition of Ureaplasma parvum thymidine kinase by liquid scintillation counting
T1 sequence (Q9PPP5 whole entry): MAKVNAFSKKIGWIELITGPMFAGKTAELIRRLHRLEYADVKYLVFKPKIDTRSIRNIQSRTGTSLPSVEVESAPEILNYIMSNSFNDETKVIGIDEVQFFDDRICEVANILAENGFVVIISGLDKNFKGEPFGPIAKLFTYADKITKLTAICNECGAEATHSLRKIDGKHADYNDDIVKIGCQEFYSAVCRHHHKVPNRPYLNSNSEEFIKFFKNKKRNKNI

[1] = biological target: T2, Thymidine kinase, cytosolic (Homo sapiens, UniProt P04183); assay: Inhibition of human TK1 by liquid scintillation counting
T2 sequence (P04183 whole entry): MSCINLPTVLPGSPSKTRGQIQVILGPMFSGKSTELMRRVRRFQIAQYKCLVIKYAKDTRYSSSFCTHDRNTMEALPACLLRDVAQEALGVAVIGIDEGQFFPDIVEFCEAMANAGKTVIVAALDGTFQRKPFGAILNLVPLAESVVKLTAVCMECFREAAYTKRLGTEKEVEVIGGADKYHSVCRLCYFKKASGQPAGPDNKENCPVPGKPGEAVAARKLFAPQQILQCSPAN

SMILES | IC50 (Thymidine kinase) | IC50 [1]
Cc1cn([C@H]2C[C@H](n3cc(CCc4ccccc4)nn3)[C@@H](CO)O2)c(=O)[nH]c1=O [3'-(4-(2-Phenyl-ethyl)-1,2,3-triazole-1-yl)-2'-deoxythymidine] | 120 µM | 
Cc1cn([C@H]2C[C@H](n3cc(C(C)(C)C)nn3)[C@@H](CO)O2)c(=O)[nH]c1=O [3'-(4-tert-Butyl-1,2,3-triazol-1-yl)-3'-deoxythymidine] | 318 µM | 114 µM
Cc1cn([C@H]2C[C@H](n3cc(-c4ccccn4)nn3)[C@@H](CO)O2)c(=O)[nH]c1=O [3'-Deoxy-3'-(4-pyridin-2-yl-1,2,3-triazol-1-yl)-beta-D-thymidine] | 211 µM | 
Cc1cn([C@H]2C[C@H](n3cc(-c4ccccc4)nn3)[C@@H](CO)O2)c(=O)[nH]c1=O [3'-Deoxy-3'-(4-phenyl-1,2,3-triazol-1-yl)-beta-D-thymidine] | 200 µM | 
